The text below walks through data of patent US7470719B2, “Metastable benzoxepne derivatives which can be used in the treatment of dyslipidaemia a therosclerosis and diabetes, pharmaceutical compositions comprising them and processes for the preparation thereof” (Merck Patent GmbH, priority 2002, dated 2008).

Common to all, as to format: physicochemical
A short description of data set [1]: Apparent density of the crystalline forms. Particulars: for Apparent density: powder of the crystalline form, paired with the specific surface area of the same line. An excerpt:
(§1) The dissolution kinetics promote the xenobiotic bioavailability of this type of active principle. It is also known that the dissolution kinetics are accelerated by increasing the specific surface area. […] Table I below gives the respective values of the apparent density and the specific surface area (BET surface area) for the various crystalline forms.

The nature of data set [2]: Specific surface area (BET) of the crystalline forms. Particulars: powder of the crystalline form; paired with the apparent density of the same line.
Source text: as §1

Data set [3] can be described thus: Comparative grinding studies (jet micronisation): specific surface area (BET) of batches. The following applies: for BET: after grinding, feed pressure, grinding pressure and feed flow differ per batch (batches 1-11, see line of table). On the procedure: In addition, comparative grinding studies, in particular by jet micronisation, were performed so as to obtain powders of the stable and metastable forms having the same specific surface area.
Table II below presents a comparison of the specific surface areas of different batches of the compound of the formula I in which n represents 1 and R in position 7 represents methoxy, obtained by carrying out different grinding conditions.

Several values for one entry are separate records, joined by “and”; a condition that tells them apart may be missing. Equal values may be shown once.

Take `COc1ccc2c(c1)C(/C=C/C(C)=C/C(=O)O)=CC(C)(C)CO2` [metastable, 2E,4E-(methoxy-7-dimethyl-3-dihydro-2,3-benzoxepin-1-yl-5)-5-methyl-3-pentadien-2,4-oic Acid]: in data set [1] (for the same specific surface area value), the “Apparent density of metastable form compared with thermodynamically stable form” value is given as “greater apparent density”. Also, in data set [1], the Apparent density is 0.30. Moreover, the “Specific surface area or BET” value in data set [2] is 3.1 m^2/g and 2.8 m^2/g. The BET in data set [3] (feed 2.0 bar, grinding 1.0 bar, 4.5 kg/h) stood at 6.2 m^2/g; in data set [3] (feed 2.2 bar, grinding 1.2 bar, 5.0 kg/h) it was 7.2 m^2/g; in data set [3] (feed 2.5 bar, grinding 1.5 bar, 1.5 kg/h), 10.2 m^2/g; in data set [3] (feed 2.5 bar, grinding 1.5 bar, 2.4 kg/h), 9.1 m^2/g; in data set [3] (feed 2.5 bar, grinding 1.5 bar, 6.5 kg/h) it was 9.2 m^2/g. In data set [3] (jet micronisation, similar operating conditions (feed pressure and grinding pressure)), the “Specific surface area (BET) after grinding, metastable versus stable form” value was “greater specific surface area (BET)”. Moreover, the “Suitability for grinding or micronisation” value in data set [3] (metastable versus stable form) was “more suitable for grinding or micronisation”.
On to `COc1ccc2c(c1)C(/C=C/C(C)=C/C(=O)O)=CC(C)(C)CO2` [stable, 2E,4E-(methoxy-7-dimethyl-3,3-dihydro-2,3-benzoxepin-1-yl-5)-5-methyl-3-pentadien-2,4-oic acid], for which, in data set [1], the Apparent density is 0.18 and 0.29 and 0.16.
